Key:
[1] = biological target: T1, cAMP-dependent protein kinase catalytic subunit PRKX (Homo sapiens) (UniProt P51817); test: Inhibition of PRKX (unknown origin) assessed as residual activity at 100 nM by KINOMEscan analysis relative to control
T1 sequence (whole entry): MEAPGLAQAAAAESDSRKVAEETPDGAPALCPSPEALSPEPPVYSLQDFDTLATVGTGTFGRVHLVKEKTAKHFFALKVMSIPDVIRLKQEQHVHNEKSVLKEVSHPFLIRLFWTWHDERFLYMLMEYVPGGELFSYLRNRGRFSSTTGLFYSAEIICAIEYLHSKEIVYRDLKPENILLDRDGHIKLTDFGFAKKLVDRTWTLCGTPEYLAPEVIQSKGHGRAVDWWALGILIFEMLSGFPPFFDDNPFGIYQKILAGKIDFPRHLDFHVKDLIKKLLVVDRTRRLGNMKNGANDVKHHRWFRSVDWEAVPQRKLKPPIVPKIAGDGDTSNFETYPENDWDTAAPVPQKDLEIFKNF

[2] = biological target: Serine/threonine-protein kinase Nek6 (Homo sapiens) (UniProt Q9HC98); test: Inhibition of NEK6 (unknown origin) assessed as residual activity at 100 nM by KINOMEscan analysis relative to control
[3] = biological target: Ephrin type-A receptor 5 (Homo sapiens) (UniProt P54756); test: Inhibition of EPHA5 (unknown origin) assessed as residual activity at 100 nM by KINOMEscan analysis relative to control
[4] = biological target: Ribosomal protein S6 kinase alpha-3 (Homo sapiens) (UniProt P51812); test: Inhibition of N-terminal RSK2 kinetic domain 1 (unknown origin) assessed as residual activity at 100 nM by KINOMEscan analysis relative to control
[5] = biological target: Cyclin-dependent kinase 3 (Homo sapiens) (UniProt Q00526); test: Inhibition of CDK3 (unknown origin) assessed as residual activity at 100 nM by KINOMEscan analysis relative to control
[6] = biological target: T2, Megakaryocyte-associated tyrosine-protein kinase (Homo sapiens) (UniProt P42679); test: Inhibition of CTK (unknown origin) assessed as residual activity at 100 nM by KINOMEscan analysis relative to control
T2 sequence (whole entry): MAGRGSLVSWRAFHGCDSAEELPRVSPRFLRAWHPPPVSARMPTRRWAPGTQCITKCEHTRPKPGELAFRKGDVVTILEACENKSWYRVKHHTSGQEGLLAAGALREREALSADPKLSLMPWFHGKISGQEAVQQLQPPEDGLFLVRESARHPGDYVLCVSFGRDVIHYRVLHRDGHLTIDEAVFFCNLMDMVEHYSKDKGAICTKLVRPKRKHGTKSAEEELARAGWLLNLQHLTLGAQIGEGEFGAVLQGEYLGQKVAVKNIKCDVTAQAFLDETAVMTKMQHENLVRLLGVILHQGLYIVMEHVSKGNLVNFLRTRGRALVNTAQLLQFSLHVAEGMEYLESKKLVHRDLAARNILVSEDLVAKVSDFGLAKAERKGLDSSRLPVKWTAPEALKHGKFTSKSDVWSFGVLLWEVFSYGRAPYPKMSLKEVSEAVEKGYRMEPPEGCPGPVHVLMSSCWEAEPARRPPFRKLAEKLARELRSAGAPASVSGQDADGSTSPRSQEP

[7] = system: Phosphatidylinositol 4,5-bisphosphate 3-kinase catalytic subunit alpha isoform (Homo sapiens), P42336 [M1043I]; test: Inhibition of PIK3CA M1043I mutant (unknown origin) assessed as residual activity at 100 nM by KINOMEscan analysis relative to control
[8] = biological target: T3, Ephrin type-B receptor 6 (Homo sapiens) (UniProt O15197); test: Inhibition of EPHB6 (unknown origin) assessed as residual activity at 100 nM by KINOMEscan analysis relative to control
T3 sequence (whole entry): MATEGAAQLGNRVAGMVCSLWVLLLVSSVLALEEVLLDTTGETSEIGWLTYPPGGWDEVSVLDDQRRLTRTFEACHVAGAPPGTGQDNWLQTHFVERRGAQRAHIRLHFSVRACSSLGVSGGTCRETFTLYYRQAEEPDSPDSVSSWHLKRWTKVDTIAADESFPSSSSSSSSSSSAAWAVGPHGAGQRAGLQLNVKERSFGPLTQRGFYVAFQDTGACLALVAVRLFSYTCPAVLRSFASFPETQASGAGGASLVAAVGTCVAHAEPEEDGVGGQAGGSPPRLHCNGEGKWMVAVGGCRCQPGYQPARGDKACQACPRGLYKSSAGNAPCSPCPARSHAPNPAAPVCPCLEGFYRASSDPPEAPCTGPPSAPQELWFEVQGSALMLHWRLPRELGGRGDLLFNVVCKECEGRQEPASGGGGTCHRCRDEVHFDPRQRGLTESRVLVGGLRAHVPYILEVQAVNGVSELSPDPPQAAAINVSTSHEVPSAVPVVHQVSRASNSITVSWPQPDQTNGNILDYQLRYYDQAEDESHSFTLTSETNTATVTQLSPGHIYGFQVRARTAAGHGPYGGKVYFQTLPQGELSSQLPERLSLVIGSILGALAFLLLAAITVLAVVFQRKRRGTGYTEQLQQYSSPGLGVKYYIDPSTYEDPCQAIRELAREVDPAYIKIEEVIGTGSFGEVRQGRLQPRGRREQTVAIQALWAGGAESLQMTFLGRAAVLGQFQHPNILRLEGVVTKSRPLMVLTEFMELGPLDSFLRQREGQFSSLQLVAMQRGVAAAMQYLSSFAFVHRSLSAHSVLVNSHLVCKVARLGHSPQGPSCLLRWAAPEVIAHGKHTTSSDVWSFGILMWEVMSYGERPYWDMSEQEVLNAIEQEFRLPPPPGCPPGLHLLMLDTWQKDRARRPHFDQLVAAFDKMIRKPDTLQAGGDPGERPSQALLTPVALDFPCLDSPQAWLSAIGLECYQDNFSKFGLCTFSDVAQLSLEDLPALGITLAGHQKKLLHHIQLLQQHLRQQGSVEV

Sequence of Ribosomal protein S6 kinase alpha-3 (Homo sapiens) (P51812 whole entry, the tested form may be a part): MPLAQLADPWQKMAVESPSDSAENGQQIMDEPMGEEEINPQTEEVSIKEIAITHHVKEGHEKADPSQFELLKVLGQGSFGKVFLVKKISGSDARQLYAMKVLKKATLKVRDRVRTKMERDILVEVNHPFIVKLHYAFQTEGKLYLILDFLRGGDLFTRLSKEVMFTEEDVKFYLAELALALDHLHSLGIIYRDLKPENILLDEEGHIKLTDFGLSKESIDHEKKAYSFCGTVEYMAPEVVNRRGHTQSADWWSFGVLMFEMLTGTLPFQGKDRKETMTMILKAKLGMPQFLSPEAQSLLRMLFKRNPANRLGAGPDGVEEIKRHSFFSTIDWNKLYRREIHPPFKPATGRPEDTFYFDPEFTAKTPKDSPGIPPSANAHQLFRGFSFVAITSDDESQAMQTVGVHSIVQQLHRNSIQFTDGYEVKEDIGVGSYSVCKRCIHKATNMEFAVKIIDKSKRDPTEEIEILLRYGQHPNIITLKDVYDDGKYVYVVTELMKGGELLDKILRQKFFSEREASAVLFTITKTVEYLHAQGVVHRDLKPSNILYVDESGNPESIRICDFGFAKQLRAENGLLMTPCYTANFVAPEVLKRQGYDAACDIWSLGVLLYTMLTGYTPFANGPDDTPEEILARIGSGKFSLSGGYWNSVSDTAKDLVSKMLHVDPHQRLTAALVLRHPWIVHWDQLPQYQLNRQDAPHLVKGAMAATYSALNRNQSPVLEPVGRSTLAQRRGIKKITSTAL
Sequence of Serine/threonine-protein kinase Nek6 (Homo sapiens) (Q9HC98 whole entry): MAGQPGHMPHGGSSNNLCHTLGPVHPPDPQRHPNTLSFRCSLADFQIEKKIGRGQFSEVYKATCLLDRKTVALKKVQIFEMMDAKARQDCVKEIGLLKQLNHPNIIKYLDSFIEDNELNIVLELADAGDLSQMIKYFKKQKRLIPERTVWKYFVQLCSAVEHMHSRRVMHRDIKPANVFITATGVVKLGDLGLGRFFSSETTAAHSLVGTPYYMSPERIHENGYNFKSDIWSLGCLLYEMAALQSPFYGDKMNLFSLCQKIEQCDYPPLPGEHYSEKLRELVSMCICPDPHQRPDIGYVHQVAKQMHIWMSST
Sequence of Ephrin type-A receptor 5 (Homo sapiens) (P54756 whole entry, the tested form may be a part): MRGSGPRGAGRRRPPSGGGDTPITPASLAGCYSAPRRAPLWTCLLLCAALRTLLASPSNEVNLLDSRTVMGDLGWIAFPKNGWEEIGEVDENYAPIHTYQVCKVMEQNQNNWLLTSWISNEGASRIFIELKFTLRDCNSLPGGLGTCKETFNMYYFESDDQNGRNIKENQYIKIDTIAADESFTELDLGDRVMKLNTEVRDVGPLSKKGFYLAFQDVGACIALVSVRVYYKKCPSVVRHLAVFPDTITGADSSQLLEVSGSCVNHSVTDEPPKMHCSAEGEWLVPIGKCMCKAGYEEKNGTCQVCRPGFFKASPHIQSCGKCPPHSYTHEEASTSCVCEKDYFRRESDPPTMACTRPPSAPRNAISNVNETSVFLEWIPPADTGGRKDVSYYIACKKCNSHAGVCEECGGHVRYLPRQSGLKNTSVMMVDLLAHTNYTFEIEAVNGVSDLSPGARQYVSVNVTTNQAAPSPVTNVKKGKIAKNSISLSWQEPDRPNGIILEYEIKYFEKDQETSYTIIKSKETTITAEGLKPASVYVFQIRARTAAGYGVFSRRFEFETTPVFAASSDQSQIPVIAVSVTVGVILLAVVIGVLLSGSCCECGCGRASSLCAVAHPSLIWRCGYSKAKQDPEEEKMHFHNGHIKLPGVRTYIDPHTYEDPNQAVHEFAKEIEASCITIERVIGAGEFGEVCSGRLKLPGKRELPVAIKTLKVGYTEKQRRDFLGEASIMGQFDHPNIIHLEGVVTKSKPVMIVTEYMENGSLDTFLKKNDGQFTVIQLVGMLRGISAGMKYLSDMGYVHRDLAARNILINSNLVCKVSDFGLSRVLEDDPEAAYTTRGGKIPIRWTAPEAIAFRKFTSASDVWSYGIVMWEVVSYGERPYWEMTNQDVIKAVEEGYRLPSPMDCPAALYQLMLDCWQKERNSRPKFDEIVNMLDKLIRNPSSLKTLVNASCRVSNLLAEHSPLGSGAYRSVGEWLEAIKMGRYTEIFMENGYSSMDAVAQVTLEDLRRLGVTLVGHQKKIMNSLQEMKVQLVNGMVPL
Sequence of Phosphatidylinositol 4,5-bisphosphate 3-kinase catalytic subunit alpha isoform (Homo sapiens), P42336 [M1043I] (P42336 whole entry M1043I, canonical isoform): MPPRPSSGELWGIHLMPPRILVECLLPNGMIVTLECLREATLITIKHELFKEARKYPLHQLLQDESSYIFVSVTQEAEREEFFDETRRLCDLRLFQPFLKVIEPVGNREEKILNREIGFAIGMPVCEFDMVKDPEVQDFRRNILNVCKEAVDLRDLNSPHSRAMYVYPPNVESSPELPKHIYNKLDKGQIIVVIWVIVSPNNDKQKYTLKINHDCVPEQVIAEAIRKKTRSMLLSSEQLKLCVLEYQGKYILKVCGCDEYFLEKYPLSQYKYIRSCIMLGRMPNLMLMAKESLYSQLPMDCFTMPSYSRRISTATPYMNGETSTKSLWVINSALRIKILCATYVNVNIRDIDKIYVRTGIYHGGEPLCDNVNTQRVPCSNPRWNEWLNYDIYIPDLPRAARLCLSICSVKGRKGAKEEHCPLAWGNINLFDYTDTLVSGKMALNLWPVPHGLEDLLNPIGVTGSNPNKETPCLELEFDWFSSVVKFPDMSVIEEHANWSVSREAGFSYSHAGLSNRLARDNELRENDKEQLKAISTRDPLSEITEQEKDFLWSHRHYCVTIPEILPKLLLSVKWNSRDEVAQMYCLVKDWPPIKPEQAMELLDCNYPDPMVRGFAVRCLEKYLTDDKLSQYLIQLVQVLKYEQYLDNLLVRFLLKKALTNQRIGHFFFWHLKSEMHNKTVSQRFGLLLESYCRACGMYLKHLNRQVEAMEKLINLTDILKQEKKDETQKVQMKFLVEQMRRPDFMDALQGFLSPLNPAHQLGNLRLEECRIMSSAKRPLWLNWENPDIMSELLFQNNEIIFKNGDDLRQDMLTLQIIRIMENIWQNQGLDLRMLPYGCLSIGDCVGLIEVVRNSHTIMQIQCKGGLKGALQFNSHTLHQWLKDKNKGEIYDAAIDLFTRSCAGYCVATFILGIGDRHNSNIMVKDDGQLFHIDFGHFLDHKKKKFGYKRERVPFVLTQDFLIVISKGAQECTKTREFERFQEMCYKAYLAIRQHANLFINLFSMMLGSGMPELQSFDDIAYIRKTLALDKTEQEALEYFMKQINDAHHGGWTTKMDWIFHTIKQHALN
Sequence of Cyclin-dependent kinase 3 (Homo sapiens) (Q00526 whole entry, looked up): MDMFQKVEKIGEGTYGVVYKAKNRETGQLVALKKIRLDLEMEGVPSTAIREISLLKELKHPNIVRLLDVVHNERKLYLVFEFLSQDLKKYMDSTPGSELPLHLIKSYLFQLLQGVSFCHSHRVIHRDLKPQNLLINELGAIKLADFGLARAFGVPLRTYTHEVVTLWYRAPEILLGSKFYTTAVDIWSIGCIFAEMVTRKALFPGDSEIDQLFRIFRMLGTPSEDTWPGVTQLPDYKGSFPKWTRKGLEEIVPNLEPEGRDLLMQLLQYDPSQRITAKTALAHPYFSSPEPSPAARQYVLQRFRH

Q: With COc1cc2ncnc(N[C@H](C)c3cccc4ccccc34)c2cc1OC as the compound, how does the Activity [1] read?
A: Its Activity is 100%.

Q: What about the Activity [2] of the same compound?
A: Its Activity is 79%.

Q: And the Activity [3]?
A: The Activity was 86%.

Q: And the Activity [4]?
A: Its Activity is 70%.

Q: What about the Activity [5] of the same compound?
A: The Activity was 95%.

Q: And the Activity [6]?
A: Its Activity is 64%.

Q: And the Activity [7]?
A: The Activity was 89%.

Q: What about the Activity [8] of the same compound?
A: Its Activity is 77%.

— ChEMBL document CHEMBL5678818, “Discovery of potent SOS1 inhibitors that block RAS activation via disruption of the RAS-SOS1 interaction” (Proc Natl Acad Sci U S A, 2019)
